Experimental data taken from PMC10218257, “Ionic Levothyroxine Formulations: Synthesis, Bioavailability, and Cytotoxicity Studies” (International Journal of Molecular Sciences, 2023).
Read-outs that look alike come from different tables or passages of the source.

How the values were obtained:
[1] = Permeability assays, Franz-type diffusion cell; parameters: Kd (partition coefficient): unit not given beside the values
From the text: In this context, a polyethersulphone (PES-U) membrane was selected for the determination of these two parameters. The diffusion coefficient is associated with the amount of API diffused with time. Therefore, the increase in the diffusion coefficient is proportional to the speed of the drug's diffusion through the membrane. Another aspect to consider is that the solubility of the drug is proportional to the driving force. […] The chosen membrane was polyethersulphone (PES-U) with 150 μm thickness and 0.45 μm pore size (Sartorius Stedim Biotech, Göttingen, Germany), which was placed between the two compartments and held with a stainless-steel clamp. The receptor compartment was filled with PBS solution, and air bubbles were removed. […] The determination of the API diffused was performed by HPLC. The assays were performed with three replicates. […] The cumulative mass of drug diffused to the receptor compartment was determined taking into consideration the replacement of aliquots with fresh medium and the dilution derived from the addition of fresh buffer. […] According to a derived solution of Fick's law of diffusion, it is possible to determine the diffusion coefficient, D, of the API through the membrane. […] Cf and Ci are the final and initial concentrations in the receptor compartment, and Ct is the concentration in the receptor compartment at time t.

[2] = Thermogravimetric analysis (TGA); type: physicochemical; settings: 5 °C min^−1, argon
Protocol: Thermogravimetric analyses were performed over a temperature range from room temperature to 500 °C in a thermogravimetric analyzer from Setaram Labsys EVO (France) with a weighing precision of ±0.01%. Each run was conducted at a heating rate of 5 °C min^−1, under a highly pure argon atmosphere purged at 50 mL min^−1, with a mass sample between 8 and 10 mg.

[3] = test system: L929 cells; assay: Cell viability assay (MTS, CellTiter 96); type: cell-based; settings: 24 h exposure, 50 and 75 ppm
Protocol: The biological effect of compounds was evaluated on the L929 cell line (DSMZ—German Collection of Microorganisms and Cell Culture GmbH). […] Cells only incubated with complete media were used as negative control and DMSO was chosen […]. […] The amount of formazan product was measured in a microplate reader (VICTOR Nivo TM, PerkinElmer, Waltham, MA, USA) at 490 nm, as absorbance is directly proportional to the number of viable cells in culture. Cell viability was expressed as the percentage of cells exposed to extracts vs. controls. Statistical analysis was performed using GraphPad Prism 7.00 software. A two-way ANOVA test was performed as well as Tukey’s multiple comparison test.

[4] = Solubility assays in water, PBS and serum; type: physicochemical
Protocol: All the assays were carried out in triplicate. The average and standard deviation were calculated for the three replicates.

[5] = PES-U membrane, 37 °C, 50 mg L^−1, 8-hour assay

Compound	Diffusion [1, 5]	Permeability [1, 5]	onset of the major weight decrease (degradation) [2] [°C]	Cell viability / cytotoxicity [3]	Solubility in PBS 37 °C ([4]; PBS, 37 °C) [µg/mL]	Solubility in Serum 37 °C ([4]; serum, 37 °C) [µg/mL]	Solubility in Water 25 °C ([4]; water, 25 °C) [µg/mL]	Solubility in Water 37 °C ([4]; water, 37 °C) [µg/mL]	Kd (partition coefficient) [1]	Permeability [1]	ΔTons, onset shifted to lower temperatures vs neat [Na][T4] [2]
NC(Cc1cc(I)c(Oc2cc(I)c(O)c(I)c2)c(I)c1)C(=O)[O-].[Na+] (centres unmarked) [[Na][T4], Levothyroxine sodium salt pentahydrate, reference compound]	0.49 (×10^−6) cm^2 s^−1	2.04 (×10^−5) cm s^−1	175	without losing their viability	–	–	–	–	–	–	–
1-(2-Hydroxyethyl)-3-Methylimidazolium Levothyroxine [[C2OHMiM][T4]]	–	–	–	–	324 ± 4	321 ± 7	277 ± 34	379 ± 22	0.45	1.02 (×10^−5) cm s^−1	~ 30 °C
